Source: paper PMC12435844, “cGAS activation converges with intracellular acidification to promote STING aggregation and pyroptosis in tumor models” (The Journal of Clinical Investigation, 2025)
Values belong to the compound of their own block, whether it stands above or below them.

Key:
cyclophilin D (CypD) [1] = biological target: T1, cyclophilin D (CypD) (Homo sapiens, UniProt P30405); assay: SPR; also FL-DSF (KD […]) and CETSA on immunoprecipitated CypD; format: binding
T1 construct: gene PPIF

cyclophilin D (CypD) [2] = biological target: T1, cyclophilin D (CypD); assay: photoactive click probe in A375 cells, azide-biotin conjugation, streptavidin pull-down and Western blot; format: cell-based
STING = STING (UniProt Q86WV6); assay: co-immunoprecipitation; details: reference: PERK wild type; sites T982

T1 sequence (P30405 30-207): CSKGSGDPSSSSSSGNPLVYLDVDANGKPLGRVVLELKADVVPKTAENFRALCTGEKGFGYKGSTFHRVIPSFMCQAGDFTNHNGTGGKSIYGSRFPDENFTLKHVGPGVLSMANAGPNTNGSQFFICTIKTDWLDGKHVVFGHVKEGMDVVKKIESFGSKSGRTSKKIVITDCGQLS

Kd (cyclophilin D (CypD) [1]): 1190 ± 68 nM
Compound: CCCCCCCCCCCCOC(=O)c1ccc2cc(O)ccc2c1 [DHN, dodecyl 6-hydroxy-2-naphthoate]

Compound: C#CCCC1(CC(=O)OCCCCCOC(=O)c2ccc3cc(O)ccc3c2)N=N1 [DHN-P]
photoactive click probe in A375 cells, azide-biotin conjugation, streptavidin pu (cyclophilin D (CypD) [2]): DHN-P could effectively pull down CypD but not other components in the mPTP complex

Compound: PERK (from UniProt Q9NZJ5) PERK T982A
binding against the reference (STING): lost
